Key:
[1] = system: diabetic obese rats (male ZDF rats); assay: Test Example 2: effect of combined use of various GLP-1 receptor agonists and compound A, same manner as Test Example 1; conditions: combined use with compound A
[2] = system: diabetic obese rats (male ZDF rats); assay: Test Example 1: effect of combined use of GLP-1 (7-36) amide and compound A; assay type: in vivo, rat; conditions: from start of treatment to 57 days; FIG. 1-C
Description: In this test, commercially available diabetic obese rats (male ZDF rats, 8 weeks old at the start of administration, purchased from Charles River Laboratories Japan, Inc.) were used. ZDF rats used in this test were acclimatized to the feeding time from 9:30 to 16:30 from one week before the start of treatment.
Rats were divided into four groups: the control group, compound A treatment group (group A), GLP-1 (7-36) amide treatment group (group B), and compound A plus GLP-1 (7-36) amide treatment group (group C).
The control group and group B were allowed free access to a powder feed (FR-2: Funabashi Farms Co., Ltd.) from 9:30 to 16:30. […] The dose of compound A was calculated as 16.1 μg/kg/day based on the food intake during this period. […]
Glycosylated hemoglobin (HbA1c) levels were measured at 42 days after the start of treatment, and blood sugar levels in full feeding were measured at 47 days. […]
Furthermore, insulin in the pancreas was extracted by the hydrochloric acid-ethanol method (Diabetelogia, Vol. 27, pp. 454-459 [1984]), and the insulin concentration in the extract was determined by using a rat insulin RIA kit manufactured by Linco Research, Inc. to obtain the pancreatic insulin content. […]
Blood was collected from the caudal vein of the rats, and blood sugar levels were measured with Glucoroder GXT (A & T Corporation). HbA1c levels were measured with DC2000 (Bayer Medical Ltd.).

Compound | weight gain by compound A [1] | increases in body weight (weight gain) [2] | decrease in HbA1c levels [1] | pancreatic insulin content [1]
CCCCCCCCCCCCCCCC(=O)N[C@@H](CCC(=O)NCCCC[C@H](NC(=O)[C@H](C)NC(=O)[C@H](C)NC(=O)[C@H](CCC(N)=O)NC(=O)CNC(=O)[C@H](CCC(=O)O)NC(=O)[C@H](CC(C)C)NC(=O)[C@H](Cc1ccc(O)cc1)NC(=O)[C@H](CO)NC(=O)[C@H](CO)NC(=O)[C@@H](NC(=O)[C@H](CC(=O)O)NC(=O)[C@H](CO)NC(=O)[C@@H](NC(=O)[C@H](Cc1ccccc1)NC(=O)[C@@H](NC(=O)CNC(=O)[C@H](CCC(=O)O)NC(=O)[C@H](C)NC(=O)[C@@H](N)Cc1cnc[nH]1)[C@@H](C)O)[C@@H](C)O)C(C)C)C(=O)N[C@@H](CCC(=O)O)C(=O)N[C@@H](Cc1ccccc1)C(=O)N[C@H](C(=O)N[C@@H](C)C(=O)N[C@@H](Cc1c[nH]c2ccccc12)C(=O)N[C@@H](CC(C)C)C(=O)N[C@H](C(=O)N[C@@H](CCCNC(=N)N)C(=O)NCC(=O)N[C@@H](CCCNC(=N)N)C(=O)NCC(=O)O)C(C)C)[C@@H](C)CC)C(=O)O [Arg^34 Lys^26(N^6-(γ-L-glutamyl(N^α-palmitoyl))) GLP-1 (7-37)] | suppressing |  |  | 
COc1ccc2nc(COc3ccc(CC4SC(=O)NC4=O)cc3)n(C)c2c1 (centres unmarked) [compound A, 5-[4-(6-Methoxy-1-methyl-1H-benzimidazol-2-ylmethoxy)benzyl]thiazolidine-2,4-dione] |  | weight gain |  | 
exendin 3 | suppressing |  | synergistic effect | marked increase
